What was measured:
BALB/c male mice [1] = experiment: Mice Training in the Morris Water maze, memory disturbed by Scopolamine; format: in vivo; conditions: Scopolamine 0.6 mg/kg, 1.2.1(5)HCl 0.1 mg/kg, 1.2.1(1)HCl 1 mg/kg, Tacrine 3 mg/kg
Experimental: A round pool of 100 cm in diameter and sides height of 30 cm was used. It was filled with water at 20-22° C. A round ceramic platform of 14 cm height was placed in the pool. Animals's behavior was registered with an automated computer video system in combination with software package of movement analysis Any-maze (Stoelting Co., US). The experiments were carried out on aged male mice of BALB/c line weighing 20-24 grams. Before the experiments mice suitable for training were selected. This was done by placing the platform 1 cm above the water level and putting an animal on the platform for 20 seconds. Then the mouse was sunk into the water on the opposite side of the pool, allowed to find the platform and climb it for 60 seconds, where it was left for additional 20 seconds. After that the mouse was repeatedly immersed into the water on the opposite side of the pool and allowed to look for the platform. If it failed in finding the platform within 60 seconds the experimentator helped it to find the platform and climb it. If the mice couldn't find the platform itself in two consecutive attempts it was excluded from the experiment. During the next two days the platform was placed 0.5 cm lower the water level. Every day the mice were given four attempts for finding the platform within 60 seconds. The time interval between the attempts was 20 seconds, during which the mice stayed on the platform. Every day before the first attempt the mice was placed on the platform for 20 seconds. The time needed for finding and climbing the platform was registered. The animals were sunk into water in two different places on the side of the pool opposite to the platform. […] The animals of the control group were injected with physiological solution. At least 8 animals were used in each group. On the third day the platform was removed and each animal was placed one time into the pool for a period of 60 seconds. The time each mouse spent in the area where the platform had been located during the previous days was registered. […]

BALB/c male mice [2] = experiment: Passive Avoidance of Mice in a Shuttle Chamber, memory disturbed by scopolamine (Example 7); format: in vivo; conditions: scopolamine 0.3 mg/kg
Experimental: A shuttle chamber (Ugo Basile, Italy) consisted of two sections was used. […] The sections were connected through a hole which could be shut with a vertical door. The floor was made of transverse metal bars on which DC current impulses could be fed. Experiments were carried out in aged male mice of BALB/c line weighing 20-24 grams. On the first day of the experiment 30 minutes before training the mice were injected intraintestinally with physiological solution of scopolamine (0.3 mg/kg) or Scopolamine in combination with antagonists of 5-HT6 receptors 1.2.1(2)HCl, 1.2.1(4)HCl or 1.2.1(5)HCl. Each group consisted of at least 8 animals. The animals were placed in the light section, and the latent period of the first entry into the dark chamber was registered. Then the vertical door was shut and the animal was punished by 0.6 mA DC current for 3 seconds. After that the animal was returned to its living cage. In 22-24 hours the same animal was placed again in the light section of the shuttle chamber and the latent period of its first entry into the dark section, the total time of its stay in the light section and the number of entries into the dark section were registered. Each observation lasted for 5 minutes. The experiment was carried out during the day time in an isolated laboratory using white noise at a level of about 70 decibel above the human hearing threshold. Scopolamine causes the disturbance of training (memory loss) which results in […] and a decreased number of entries into the dark section. The fact that 5-HT6 receptor antagonists can improve the learning ability that has been disturbed by scopolamine is regarded as evidence for their nootropic effect.

5-HT6 receptor = biological target: T1, 5-HT6 receptor (Homo sapiens, UniProt P50406); experiment: Inhibition of serotonin-stimulated intracellular cAMP in HEK 293 cells with expressed 5-HT6 receptor (LANCE cAMP); format: cell-based; conditions: serotonin-induced cAMP
T1 construct: expressed in transfected cells; host or cells: HEK 293
T1 sequence (P50406 whole entry): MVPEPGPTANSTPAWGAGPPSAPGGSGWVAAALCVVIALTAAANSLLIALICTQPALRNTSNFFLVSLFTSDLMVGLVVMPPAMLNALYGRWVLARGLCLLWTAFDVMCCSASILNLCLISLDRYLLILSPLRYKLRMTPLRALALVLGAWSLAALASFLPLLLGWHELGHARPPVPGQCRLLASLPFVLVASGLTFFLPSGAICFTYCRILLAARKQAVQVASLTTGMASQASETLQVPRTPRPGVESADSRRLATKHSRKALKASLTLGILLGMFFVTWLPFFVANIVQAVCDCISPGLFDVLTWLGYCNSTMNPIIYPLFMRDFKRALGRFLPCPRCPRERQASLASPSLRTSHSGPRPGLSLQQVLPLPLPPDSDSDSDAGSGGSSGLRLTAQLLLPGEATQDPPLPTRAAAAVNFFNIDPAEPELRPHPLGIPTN
Experimental: The cells HEK 293 (kidney cells of a human embryon) with an artificially expressed 5-HT6 receptor, activation of which with serotonin results in intracellular cAMP increasing, were used. The concentration of intracellular cAMP was determined using a LANCE cAMP reagent (PerkinElmer) by the method described by the manufacturer: [http://las.perkinelmer.com/content/Manuals/MAN_LANCEcAMP384KitUser.pdf].
The effectiveness of the compounds was estimated on the basis of their ability to reduce the concentration of intracellular cAMP induced by serotonin, FIG. 1.

H1 histamine receptor = H1 histamine receptor (Homo sapiens, UniProt P35367); experiment: Histamine-induced intracellular calcium in SK-N-SH cells (Fura 2 AM), Phase 1: block of calcium entry
Sequence of H1 histamine receptor (P35367 whole entry): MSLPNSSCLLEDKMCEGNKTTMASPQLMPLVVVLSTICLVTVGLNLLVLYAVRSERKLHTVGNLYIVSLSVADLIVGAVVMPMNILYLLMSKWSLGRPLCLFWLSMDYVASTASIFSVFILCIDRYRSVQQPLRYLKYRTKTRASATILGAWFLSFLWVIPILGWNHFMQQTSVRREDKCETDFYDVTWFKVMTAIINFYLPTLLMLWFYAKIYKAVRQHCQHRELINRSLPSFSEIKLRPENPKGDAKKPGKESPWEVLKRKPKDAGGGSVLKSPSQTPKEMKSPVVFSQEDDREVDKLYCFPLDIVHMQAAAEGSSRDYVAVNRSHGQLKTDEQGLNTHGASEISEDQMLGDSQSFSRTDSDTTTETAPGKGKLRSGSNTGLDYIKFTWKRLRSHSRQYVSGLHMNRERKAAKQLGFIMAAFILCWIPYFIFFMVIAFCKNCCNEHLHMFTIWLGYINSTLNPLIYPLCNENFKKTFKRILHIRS
Experimental: SK-N-SH Cells (ATCC, USA) were grown in DMEM medium (Invitrogen, USA) containing 10% fetal calf serum (FBS) and Penicillin-Streptomycin antibiotics, in CO2 incubator (5% CO2) until getting the cell density 1*10^5 cells/cm^2. The cells were removed from the surface of the flask with TrypLE Express reagent (Invitrogen, USA), then collected by means of centrifugation and resuspended in Hybridoma Serum Free Medium (HSFM, Sigma, USA) providing the concentration of 4*10^6 cells/ml. For measuring the intracellular concentration of calcium the cells were loaded with the calcium-sensitive fluorescent dye Fura 2 AM (Invitrogen, USA) by incubating their suspension with the dye for 30 minutes at room temperature. Again, the cells were collected by centrifugation, resuspended in HSFM; incubated for 15 minutes, recollected by centrifugation, washed twice with HSFM and resuspended in HSFM setting up the concentration 4*10^6 cells/ml. The cells were diluted with an operating buffer (NaCl 0.145 M, KCl 0.0054 M, NaH2PO4 0.001 M, MgSO4 0.0008 M, CaCl2 0.0018 M, HEPES 0.03 M, D-glucose 0.0112 M pH 7.4) to the concentration of 1*10^5 cells/ml in a measuring cell with a magnet stirrer, after that the fluorescence registration was carried out in the mode of two-wavelength excitement (340 and 380 nm, respectively) with an emission wavelength of 510 nm (F1 and F2, respectively). In 20 seconds after the beginning of registration, 10 mM of histamine water solution was added (a final concentration is 10 μM). […] In order to estimate the biological activity of the compounds, their serial DMSO dilutions were prepared and the correlation between the influence of the compound on the histamine induced calcium stream and its concentration was determined. The transforming fluorescent signal into calcium concentration was carried out by means of the equation built in the program Super Ion Probe (Shimadzu) software. For this purpose the maximum concentration of free calcium was determined by adding 0.1 mg/ml of digitonine (Sigma, USA) up to 0.1 mg/ml, while the zero calcium concentration—by adding of ethylene-diamin-tetraacetate (EDTA) up to 10 mM. Kinetic curves of lowering intracellular calcium concentration after the addition of the tested compound in the presence of histamine were calculated with a single-phase exponential model using the Prism 4 software (GraphPad Software, Inc.): [Ca]=[Ca]max*exp(−K*T)+[Ca]min where T is the time after the tested compound was added, [Ca]max and [Ca]min are the maximum (the peak value after the addition of histamine) and the minimum (the equilibrium level the curve approached after the addition of the tested compound) concentrations of intracellular calcium, K is the rate constant of intracellular calcium concentration lowering calculated by minimization of least square deviations.
The calculated rate constants of calcium concentration lowering (K) were used to determine their dependence on the tested compound concentration (C); and by means of the program Prism 4 using this dependence the values of EC50 (the concentration of the tested compound corresponding to half-maximum increasing of the rate constant of intracellular calcium concentration lowering) were determined by virtue of four parameter equation
[formula] where KBkg and Kmax are the rate constants of calcium concentration lowering without and in the presence of infinitely large concentration of the tested compound, respectively; N is Hill's coefficient.

BALB/c male mice [3] = experiment: Mice Behavior in the Elevated Plus Maze; format: in vivo
Text: Plus Maze”. The length of each arm in the labyrinth was 30 cm, the width was 5 cm, the height of the walls was 15 cm. Two opposite arms were closed from sides and end faces by transparent walls, the other two arms were lit and opened. A mouse was placed in the center of the maze and for the next five minutes the number of entries the open and closed sections and the time spent in each type of arms was registered. […]

BALB/c male mice [4] = experiment: Passive Avoidance of Mice in the Shuttle Chamber, scopolamine or MK-801 (Example 8); format: in vivo; conditions: scopolamine 0.3 mg/kg or MK-801 0.1 mg/kg
Experimental: A shuttle chamber (Ugo Basile, Italy) consisted of two sections was used. […] The sections were connected through a hole which could be shut with a vertical door. The floor was made of transverse metal bars on which DC current impulses could be fed. Experiments were carried out in aged male mice of BALB/c line weighing 20-24 grams.
On the first day of the experiment 30 minutes before training the mice were injected intraintestinally with physiological solution of scopolamine (0.3 mg/kg) or Scopolamine in combination with antagonists of 5-HT6 receptors 1.2.1(2)HCl, 1.2.1(4)HCl or 1.2.1(5)HCl. Each group consisted of at least 8 animals. The animals were placed in the light section, and the latent period of the first entry into the dark chamber was registered. Then the vertical door was shut and the animal was punished by 0.6 mA DC current for 3 seconds. After that the animal was returned to its living cage. In 22-24 hours the same animal was placed again in the light section of the shuttle chamber and the latent period of its first entry into the dark section, the total time of its stay in the light section and the number of entries into the dark section were registered. Each observation lasted for 5 minutes.
The experiment was carried out as in example 7. […]

SHK male mice = experiment: Novel object recognition by mice against the background of Scopolamine and MK-801; format: in vivo; conditions: Scopolamine 1 mg/kg, MK-801 0.2 mg/kg
Experimental: The experiments were carried out in a cross like maze which consisted of 4 peripheral arms connected with the central chamber by 7×7 cm holes. The maze was made of black plastic and its arms were of 14×14×14 cm size. The top cover of the maze was transparent.
A mouse was placed in the central chamber of the maze and allowed to investigate the environment. Criterion of entering an arm by the animal was detecting of all its paws inside the arm. The test was considered to be completed when the mouse had accomplished 12 transitions between the arms (having made 13 visits). The floor of the maze was cleaned after each animal.
The test was carried out twice with each mouse with 1 hour interval.
During the first test each arm of the maze contained a circular plastic cup of 3 cm height and 7 cm diameter. In the second test the cover of each two opposing arms was replaced by a conical glass flask of 7 cm height and 4 cm across the bottom. The time the mouse spent in each arm of the maze was registered and the index of novel object recognition was calculated as the ratio of the time the mouse spent in the arms with the flasks to the time it spent in all arms of the maze. If no preference was given to the arms with novel objects the index was 0.5.
The mice spend more time in the arm containing novel objects that results in an increasing of recognition index. Scopolamine (1 mg/kg) and MK-801 (0.2 mg/kg) disturbed learning (memory) that leads to the lowering of recognition index.

| Compound | improvement of mice's training (Morris water maze, FIG. 11-12) (BALB/c male mice [1]) | nootropic action (passive avoidance, FIGS. 2-4) (BALB/c male mice [2]) | IC50 (5-HT6 receptor) | EC50 (H1 histamine receptor) | tranquilizing action (elevated plus maze, FIG. 19-21) (BALB/c male mice [3]) | nootropic action (passive avoidance, FIGS. 5-10) (BALB/c male mice [4]) | nootropic action (novel object recognition, FIG. 13-14) (SHK male mice) |
| --- | --- | --- | --- | --- | --- | --- | --- |
| Nc1c2c(nc3ccccc13)CCCC2 [Tacrine] | statistically significant improvement of mice's training | – | – | – | – | – | – |
| Cc1ccc2c(c1)c1c(n2CCc2ccncc2)CCN(C)C1.Cl [1.2.1(2)HCl, 2,8-dimethyl-5-[2-(pyridin-4-yl)ethyl]-2,3,4,5-tetrahydro-1H-pyrido[4,3-b]indole hydrochloride] | – | exhibit a nootropic action which is the most prominent | 430 nM | 160 nM | – | – | – |
| Cc1ccc2c(c1)c1c(n2CCc2ccc(C)nc2)CCN(C)C1.Cl [1.2.1(5)HCl, 2,8-dimethyl-5-[2-(6-methylpyridin-3-yl)ethyl]-2,3,4,5-tetrahydro-1H-pyrido[4,3-b]indole hydrochloride, reference compound] | statistically significant improvement of mice's training | exhibit a nootropic action | 4400 nM | 160 nM | exhibit a tranquilizing action | act as nootropic | nootropic action |
| O=C1CC2(CCCC2)CC(=O)N1CCCCN1CCN(c2ncccn2)CC1 [Buspiron] | – | – | – | – | exhibit a tranquilizing action | – | – |
| Cc1ccc2c(c1)c1c(n2CCc2ccccc2)CCN(C)C1.Cl [1.2.1(1)HCl, 2,8-dimethyl-5-(2-phenethyl)-2,3,4,5-tetrahydro-1H-pyrido[4,3-b]indole hydrochloride] | statistically significant improvement of mice's training | – | – | – | exhibit a tranquilizing action, which is the most prominent | highest activity | nootropic action, the level of which is the most prominent |
| Cc1ccc2c(c1)c1c(n2CCc2ccccn2)CCN(C)C1.Cl [1.2.1(4)HCl, 2,8-dimethyl-5-[2-(pyridin-2-yl)ethyl]-2,3,4,5-tetrahydro-1H-pyrido[4,3-b]indole hydrochloride] | – | exhibit a nootropic action which is the most prominent | – | 500 nM | – | – | – |

Reference: patent US8541437B2, “Substituted 2,3,4,5-tetrahydro-1H-pyrido[4,3-b]indoles, methods for the production and use thereof” (Alla Chem, LLC, priority 2007, dated 2013)
